Assay: TEASE-1: safety and adverse events
Format: in vivo, human
Protocol: The Tolerability and Effects of gildeuretinol acetate in Stargardt Disease (Clinical trial group 1 also known as TEASE-1) was a 24-month, multicenter, double-masked, placebo-controlled trial designed to evaluate the efficacy and safety of daily oral gildeuretinol acetate in slowing the growth of atrophic retinal lesions in Stargardt disease patients. The trial was conducted at multiple sites in the United States (NCT02402660).
Patients 12 years or older, clinically diagnosed with Stargardt disease, with at least one ABCA4 mutation, at least one eye presenting with well-demarcated areas of reduced fundus autofluorescence, and with any visual acuity, were eligible.
Patients were randomized to gildeuretinol acetate 14 mg capsules, gildeuretinol acetate 24 mg capsules, or placebo capsules, to be taken once daily for one year. After one year, 50% of randomly selected patients receiving placebo were crossed over in a 1:1 ratio to gildeuretinol acetate 14 mg capsules or gildeuretinol acetate 24 mg capsules for a second year.
Gildeuretinol acetate and placebo capsules were identical appearing capsules. Patients were advised to avoid vitamin A-containing supplements and liver-based products. Fruits and vegetables contain beta-carotene, not preformed vitamin A, and could be consumed without limitation. Trial visits occurred at 8 weeks and 6, 12, 18, and 24 months following screening and randomization.

In the case of `CC(=O)OC/C=C(C)/C=C/C=C(C)/C=C/C1=C(C)CCCC1(C)C` [gildeuretinol acetate, C20-D3-retinol acetate], the Inflammation (24 mg, N = 15) was 0 patients (%), the Influenza (24 mg, N = 15) was 1 (6.7) patients (%) and the Insomnia (24 mg, N = 15) was 0 patients (%). For the same compound, the Intracranial pressure increased (24 mg, N = 15) was 1 (6.7) patients (%), the Irritability (24 mg, N = 15) was 0 patients (%) and the Jaw operation (24 mg, N = 15) was 1 (6.7) patients (%). The Knee arthroplasty (24 mg, N = 15) was 0 patients (%), the Laryngitis (24 mg, N = 15) was 0 patients (%) and the Lip swelling (24 mg, N = 15) was 0 patients (%). For the same compound, the “Low density lipoprotein increased” value (24 mg, N = 15) was 0 patients (%), the Muscle spasms (24 mg, N = 15) was 0 patients (%) and the Muscle strain (24 mg, N = 15) was 0 patients (%). The Musculoskeletal pain (24 mg, N = 15) was 1 (6.7) patients (%), the Nasopharyngitis (24 mg, N = 15) was 3 (20.0) patients (%) and the Nausea (24 mg, N = 15) was 1 (6.7) patients (%). The Neck pain (24 mg, N = 15) was 0 patients (%), the Nephrolithiasis (24 mg, N = 15) was 0 patients (%) and the Nerve compression (24 mg, N = 15) was 0 patients (%). The Neuralgia (24 mg, N = 15) was 0 patients (%), the Obsessive-compulsive disorder (24 mg, N = 15) was 0 patients (%) and the Oropharyngeal pain (24 mg, N = 15) was 3 (20.0) patients (%). For the same compound, the Osteoporosis (24 mg, N = 15) was 1 (6.7) patients (%), the Pain (24 mg, N = 15) was 0 patients (%) and the Pain in extremity (24 mg, N = 15) was 2 (13.3) patients (%). The Pain in jaw (24 mg, N = 15) was 0 patients (%), the Peripheral coldness (24 mg, N = 15) was 0 patients (%) and the Pharyngitis streptococcal (24 mg, N = 15) was 0 patients (%). For the same compound, the Photophobia (24 mg, N = 15) was 0 patients (%), the Photopsia (24 mg, N = 15) was 0 patients (%) and the Plantar fasciitis (24 mg, N = 15) was 0 patients (%). For the same compound, the Pleurisy (24 mg, N = 15) was 0 patients (%), the Pneumonia (24 mg, N = 15) was 0 patients (%) and the Premenstrual syndrome (24 mg, N = 15) was 1 (6.7) patients (%). For the same compound, the Punctate keratitis (24 mg, N = 15) was 0 patients (%), the Pyrexia (24 mg, N = 15) was 1 (6.7) patients (%) and the Radius fracture (24 mg, N = 15) was 0 patients (%). For the same compound, the Rash (24 mg, N = 15) was 0 patients (%), the Rotator cuff syndrome (24 mg, N = 15) was 1 (6.7) patients (%) and the Sialoadenitis (24 mg, N = 15) was 0 patients (%). The Sinus congestion (24 mg, N = 15) was 1 (6.7) patients (%), the Sinusitis (24 mg, N = 15) was 0 patients (%) and the “Sjogren's syndrome” value (24 mg, N = 15) was 0 patients (%). For the same compound, the Skin infection (24 mg, N = 15) was 0 patients (%), the Subdural haematoma (24 mg, N = 15) was 0 patients (%) and the Syncope (24 mg, N = 15) was 1 (6.7) patients (%). The Tendonitis (24 mg, N = 15) was 0 patients (%), the Thoracic outlet syndrome (24 mg, N = 15) was 0 patients (%) and the Tongue dry (24 mg, N = 15) was 0 patients (%). The Tooth abscess (24 mg, N = 15) was 1 (6.7) patients (%), the Tooth extraction (24 mg, N = 15) was 1 (6.7) patients (%) and the Toothache (24 mg, N = 15) was 0 patients (%). The “Upper respiratory tract infection” value (24 mg, N = 15) was 1 (6.7) patients (%), the Vision blurred (24 mg, N = 15) was 0 patients (%) and the Visual field defect (24 mg, N = 15) was 0 patients (%). The Visual impairment (24 mg, N = 15) was 0 patients (%), the “Vitamin B12 deficiency” value (24 mg, N = 15) was 0 patients (%) and the “Vitamin D decreased” value (24 mg, N = 15) was 1 (6.7) patients (%). For the same compound, the Vitreous floaters (24 mg, N = 15) was 0 patients (%), the Vulvovaginal candidiasis (24 mg, N = 15) was 1 (6.7) patients (%) and the Wrist fracture (24 mg, N = 15) was 0 patients (%). For the same compound, the Xanthelasma (24 mg, N = 15) was 1 (6.7) patients (%), the elevated intracranial pressure (24 mg, one patient) was “Elevated intracranial pressure was measured” and the “papilledema grade (modified Frisen scale) with elevated intracranial pressure” value (24 mg, one patient, resolved upon temporary interruption and acetazolamide) was “Grade 1”. For the same compound, the Abdominal discomfort (crossover, N = 10) was 1 (10.0) patients (%), the Abdominal distension (crossover, N = 10) was 0 patients (%) and the Abdominal pain upper (crossover, N = 10) was 0 patients (%). The Abnormal dreams (crossover, N = 10) was 0 patients (%), the “Adverse events, Overall” value (crossover, N = 10) was 8 (80) patients (%) and the Alanine aminotransferase increased (crossover, N = 10) was 1 (10.0) patients (%). The Alopecia (crossover, N = 10) was 0 patients (%), the Ankle fracture (crossover, N = 10) was 0 patients (%) and the Arthralgia (crossover, N = 10) was 1 (10.0) patients (%). For the same compound, the Arthritis (crossover, N = 10) was 1 (10.0) patients (%), the Aspartate aminotransferase increased (crossover, N = 10) was 1 (10.0) patients (%) and the Back injury (crossover, N = 10) was 0 patients (%). For the same compound, the Back pain (crossover, N = 10) was 0 patients (%), the Blepharospasm (crossover, N = 10) was 1 (10.0) patients (%) and the Blood cholesterol increased (crossover, N = 10) was 0 patients (%). The Blood creatinine increased (crossover, N = 10) was 0 patients (%), the Blood iron decreased (crossover, N = 10) was 0 patients (%) and the Blood pressure increased (crossover, N = 10) was 0 patients (%). For the same compound, the Blood triglycerides increased (crossover, N = 10) was 0 patients (%), the Bowel movement irregularity (crossover, N = 10) was 0 patients (%) and the Bronchitis (crossover, N = 10) was 0 patients (%). The Cartilage injury (crossover, N = 10) was 0 patients (%), the Conjunctival laceration (crossover, N = 10) was 0 patients (%) and the Conjunctivitis (crossover, N = 10) was 0 patients (%). The Constipation (crossover, N = 10) was 0 patients (%), the Cough (crossover, N = 10) was 0 patients (%) and the Death (crossover, N = 10) was 0 patients (%). For the same compound, the Depression (crossover, N = 10) was 0 patients (%), the Diarrhoea (crossover, N = 10) was 1 (10.0) patients (%) and the Diplopia (crossover, N = 10) was 0 patients (%). For the same compound, the Dry eye (crossover, N = 10) was 0 patients (%), the Dry mouth (crossover, N = 10) was 0 patients (%) and the Dry skin (crossover, N = 10) was 0 patients (%). For the same compound, the Ear discomfort (crossover, N = 10) was 0 patients (%), the Ear infection (crossover, N = 10) was 1 (10.0) patients (%) and the Ear pain (crossover, N = 10) was 0 patients (%). The Eczema (crossover, N = 10) was 1 (10.0) patients (%), the Electrocardiogram abnormal (crossover, N = 10) was 1 (10.0) patients (%) and the Erythema (crossover, N = 10) was 0 patients (%). The Eye irritation (crossover, N = 10) was 0 patients (%), the Eye pain (crossover, N = 10) was 0 patients (%) and the Eye pruritus (crossover, N = 10) was 0 patients (%). For the same compound, the Face injury (crossover, N = 10) was 0 patients (%), the Faeces soft (crossover, N = 10) was 0 patients (%) and the Fall (crossover, N = 10) was 0 patients (%). The Gastroenteritis (crossover, N = 10) was 1 (10.0) patients (%), the Gastroenteritis viral (crossover, N = 10) was 0 patients (%) and the Hair texture abnormal (crossover, N = 10) was 0 patients (%). For the same compound, the Hand fracture (crossover, N = 10) was 0 patients (%), the Headache (crossover, N = 10) was 0 patients (%) and the Herpes zoster (crossover, N = 10) was 0 patients (%). The Hordeolum (crossover, N = 10) was 0 patients (%), the Hypertension (crossover, N = 10) was 0 patients (%) and the Hypobarism (crossover, N = 10) was 0 patients (%). For the same compound, the Hypothyroidism (crossover, N = 10) was 0 patients (%), the Hysterectomy (crossover, N = 10) was 0 patients (%) and the Inflammation (crossover, N = 10) was 0 patients (%). The Influenza (crossover, N = 10) was 0 patients (%), the Insomnia (crossover, N = 10) was 0 patients (%) and the Intracranial pressure increased (crossover, N = 10) was 0 patients (%). For the same compound, the Irritability (crossover, N = 10) was 0 patients (%), the Jaw operation (crossover, N = 10) was 0 patients (%) and the Knee arthroplasty (crossover, N = 10) was 0 patients (%). The Laryngitis (crossover, N = 10) was 0 patients (%), the Lip swelling (crossover, N = 10) was 0 patients (%) and the “Low density lipoprotein increased” value (crossover, N = 10) was 0 patients (%). For the same compound, the Muscle spasms (crossover, N = 10) was 0 patients (%), the Muscle strain (crossover, N = 10) was 0 patients (%) and the Musculoskeletal pain (crossover, N = 10) was 0 patients (%). The Nasopharyngitis (crossover, N = 10) was 1 (10.0) patients (%), the Nausea (crossover, N = 10) was 0 patients (%) and the Neck pain (crossover, N = 10) was 0 patients (%). For the same compound, the Nephrolithiasis (crossover, N = 10) was 1 (10.0) patients (%), the Nerve compression (crossover, N = 10) was 0 patients (%) and the Neuralgia (crossover, N = 10) was 0 patients (%). The Obsessive-compulsive disorder (crossover, N = 10) was 0 patients (%), the Oropharyngeal pain (crossover, N = 10) was 1 (10.0) patients (%) and the Osteoporosis (crossover, N = 10) was 0 patients (%). The Pain (crossover, N = 10) was 0 patients (%), the Pain in extremity (crossover, N = 10) was 0 patients (%) and the Pain in jaw (crossover, N = 10) was 0 patients (%). The Peripheral coldness (crossover, N = 10) was 0 patients (%), the Pharyngitis streptococcal (crossover, N = 10) was 0 patients (%) and the Photophobia (crossover, N = 10) was 0 patients (%). For the same compound, the Photopsia (crossover, N = 10) was 0 patients (%), the Plantar fasciitis (crossover, N = 10) was 0 patients (%) and the Pleurisy (crossover, N = 10) was 1 (10.0) patients (%). The Pneumonia (crossover, N = 10) was 1 (10.0) patients (%), the Premenstrual syndrome (crossover, N = 10) was 0 patients (%) and the Punctate keratitis (crossover, N = 10) was 0 patients (%). The Pyrexia (crossover, N = 10) was 0 patients (%), the Radius fracture (crossover, N = 10) was 0 patients (%) and the Rash (crossover, N = 10) was 1 (10.0) patients (%). The Rotator cuff syndrome (crossover, N = 10) was 0 patients (%), the Sialoadenitis (crossover, N = 10) was 0 patients (%) and the Sinus congestion (crossover, N = 10) was 0 patients (%). For the same compound, the Sinusitis (crossover, N = 10) was 0 patients (%), the “Sjogren's syndrome” value (crossover, N = 10) was 0 patients (%) and the Skin infection (crossover, N = 10) was 0 patients (%). The Subdural haematoma (crossover, N = 10) was 0 patients (%), the Syncope (crossover, N = 10) was 0 patients (%) and the Tendonitis (crossover, N = 10) was 0 patients (%). The Thoracic outlet syndrome (crossover, N = 10) was 0 patients (%), the Tongue dry (crossover, N = 10) was 0 patients (%) and the Tooth abscess (crossover, N = 10) was 0 patients (%). The Tooth extraction (crossover, N = 10) was 0 patients (%), the Toothache (crossover, N = 10) was 0 patients (%) and the “Upper respiratory tract infection” value (crossover, N = 10) was 2 (20.0) patients (%). The Vision blurred (crossover, N = 10) was 1 (10.0) patients (%), the Visual field defect (crossover, N = 10) was 1 (10.0) patients (%) and the Visual impairment (crossover, N = 10) was 0 patients (%). The “Vitamin B12 deficiency” value (crossover, N = 10) was 0 patients (%), the “Vitamin D decreased” value (crossover, N = 10) was 0 patients (%) and the Vitreous floaters (crossover, N = 10) was 1 (10.0) patients (%). For the same compound, the Vulvovaginal candidiasis (crossover, N = 10) was 0 patients (%), the Wrist fracture (crossover, N = 10) was 0 patients (%) and the Xanthelasma (crossover, N = 10) was 0 patients (%).
